According to patent publication US10294202B2, “Pyrrolidinones as herbicides” (FMC Corporation, priority 2013, dated 2019):

Legend:
[1] = test system: soybean; assay: Test C pre-/postemergence herbicide test; assay type: in vivo, Glycine max
In short: (§1)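 Two application timings ran in parallel with identically formulated test chemicals (non-phytotoxic solvent, surfactant included): spray on seeded loam–sand soil, and spray on emerged plants 2 to 18 cm high. Evaluation at 13 to 15 days compared each species with controls, rated from 0 up to 100.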

[2] = test system: ryegrass, Italian; assay: Test C pre-/postemergence herbicide test; assay type: in vivo, Lolium multiflorum
In short: as §1

[3] = test system: corn; assay: Test C pre-/postemergence herbicide test; assay type: in vivo, Zea mays
In short: as §1

[4] = test system: lambsquarters; assay: Test C pre-/postemergence herbicide test; assay type: in vivo, Chenopodium album
In short: as §1

[5] = test system: johnsongrass; assay: Test C pre-/postemergence herbicide test; assay type: in vivo, Sorghum halepense
In short: as §1

[6] = test system: barnyardgrass; assay: Test A pre-/postemergence herbicide test; assay type: in vivo, Echinochloa crus-galli; conditions: for Barnyardgrass plant response rating: Preemergence, visual rating on 0 to 100 scale (0 no effect, 100 complete control)
In short: (§2)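 Directed soil spray to seeded pots (preemergence) or spray onto one- to two-leaf seedlings 2–10 cm tall (postemergence); loam/sand substrate throughout. Evaluated visually after about 10 days against untreated plants, 0 = no effect, 100 = complete control.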

[7] = test system: giant foxtail; assay: Test A pre-/postemergence herbicide test; assay type: in vivo, Setaria faberii; conditions: for Foxtail, Giant plant response rating: Preemergence, visual rating on 0 to 100 scale (0 no effect, 100 complete control)
In short: as §2

[8] = test system: crabgrass, large; assay: Test C pre-/postemergence herbicide test; assay type: in vivo, Digitaria sanguinalis
In short: as §1

[9] = test system: ducksalad; assay: Test B flooded paddy test; assay type: in vivo, Heteranthera limosa; conditions: 250 g ai/ha, Flood; scale of 0 to 100 where 0 is no effect and 100 is complete control
In short: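 Paddy-water application at a 3 cm flood, young plants having two leaves. Water level maintained; greenhouse, 13–15 days; visual 0–100 control rating.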

[10] = test system: nutsedge, yellow; assay: Test C pre-/postemergence herbicide test; assay type: in vivo, Cyperus esculentus
In short: as §1

[11] = test system: pigweed; assay: Test C pre-/postemergence herbicide test; assay type: in vivo, Amaranthus retroflexus
In short: as §1

[12] = Postemergence, 31 g ai/ha, scale 0 (no effect) to 100 (complete control)
[13] = Postemergence, 62 g ai/ha, scale 0 to 100 (0 no effect, 100 complete control)
[14] = Postemergence, 125 g ai/ha, scale 0 to 100 (0 no effect, 100 complete control)
[15] = Postemergence, 250 g ai/ha, scale 0 to 100 (0 no effect, 100 complete control)
[16] = Postemergence, 125 g ai/ha, 0 to 100 scale, 0 no effect, 100 complete control
[17] = Postemergence, 500 g ai/ha, 0 to 100 scale (0 no effect, 100 complete control)
[18] = preemergence, 500 g ai/ha, 0 to 100 scale (0 no effect, 100 complete control)
[19] = preemergence, 500 g ai/ha, 0 to 100 scale
[20] = Preemergence, 62 g ai/ha, scale 0 to 100
[21] = Preemergence, 125 g ai/ha, scale 0 to 100 (0 no effect, 100 complete control)
[22] = Preemergence, 31 g ai/ha, scale 0 to 100 (0 no effect, 100 complete control)
[23] = Preemergence, 250 g ai/ha, scale 0 to 100 (0 no effect, 100 complete control)

`O=C1NCC(c2cc(F)c(F)cc2F)C1C(=O)Nc1cccc(F)c1F` (stereo not drawn) [Compound 50] was tested, and the “Plant response rating, Soybean” value [1, 12] was 10, the “Plant response rating, Soybean” value [1, 13] was 15 and the “Plant response rating, Soybean” value [1, 14] was 15. The “Plant response rating, Soybean” value [1, 15] was 20, the “Plant response rating, Ryegrass, Italian” value [2, 12] was 0 and the “Plant response rating, Ryegrass, Italian” value [2, 13] was 0. For the same compound, the “Plant response rating, Ryegrass, Italian” value [2, 14] was 0, the “Plant response rating, Ryegrass, Italian” value [2, 15] was 0 and the “Plant response rating, Corn” value [3, 12] was 0. The “Plant response rating, Corn” value [3, 13] was 0, the “Plant response rating, Corn” value [3, 14] was 5 and the “Plant response rating, Corn” value [3, 15] was 5. The “Plant response rating, Lambsquarters” value [4, 12] was 5, the “Plant response rating, Lambsquarters” value [4, 13] was 10 and the “Plant response rating, Lambsquarters” value [4, 14] was 10. The “Plant response rating, Lambsquarters” value [4, 15] was 15, the “Plant response rating, Johnsongrass” value [5, 12] was 0 and the “Plant response rating, Johnsongrass” value [5, 13] was 0. The “Plant response rating, Johnsongrass” value [5, 14] was 0, the “Plant response rating, Johnsongrass” value [5, 15] was 10 and the “Plant response rating, Barnyardgrass” value [6, 16] was 80. The “Plant response rating, Barnyardgrass” value [6, 17] was 80, the “Barnyardgrass plant response rating” value ([6]; 125 g ai/ha) was 30 and the “Plant response rating, Barnyardgrass” value [6, 18] was 90. The “Plant response rating, Foxtail, Giant” value [7, 16] was 80, the “Plant response rating, Foxtail, Giant” value [7, 17] was 80 and the “Foxtail, Giant plant response rating” value ([7]; 125 g ai/ha) was 90. For the same compound, the “Plant response rating, Foxtail, Giant” value [7, 19] was 90, the “Plant response rating, Crabgrass, Large” value [8, 12] was 10 and the “Plant response rating, Crabgrass, Large” value [8, 13] was 25. For the same compound, the “Plant response rating, Crabgrass, Large” value [8, 14] was 40, the “Plant response rating, Crabgrass, Large” value [8, 15] was 75 and the “Plant response rating, Ducksalad” value [9] was 90. The “Plant response rating, Nutsedge, Yellow” value [10, 12] was 0, the “Plant response rating, Nutsedge, Yellow” value [10, 13] was 0 and the “Plant response rating, Nutsedge, Yellow” value [10, 14] was 0. The “Plant response rating, Nutsedge, Yellow” value [10, 15] was 5, the “Plant response rating, Pigweed” value [11, 12] was 10 and the “Plant response rating, Pigweed” value [11, 13] was 10. The “Plant response rating, Pigweed” value [11, 14] was 20 and the “Plant response rating, Pigweed” value [11, 15] was 20.

In the case of `O=C1NCC(c2ccc(Cl)c(F)c2)C1C(=O)Nc1cccc(F)c1F` (stereo not drawn) [Compound 52], the “Plant response rating, Soybean” value [1, 12] is reported as 0, the “Plant response rating, Soybean” value [1, 13] is reported as 0 and the “Plant response rating, Soybean” value [1, 14] is reported as 5. For the same compound, the “Plant response rating, Soybean” value [1, 15] was 5, the “Plant response rating, Soybean” value [1, 20] was 10 and the “Plant response rating, Soybean” value [1, 21] was 15. The “Plant response rating, Ryegrass, Italian” value [2, 12] was 0, the “Plant response rating, Ryegrass, Italian” value [2, 13] was 0 and the “Plant response rating, Ryegrass, Italian” value [2, 14] was 0. The “Plant response rating, Ryegrass, Italian” value [2, 15] was 0, the “Plant response rating, Ryegrass, Italian” value [2, 20] was 0 and the “Plant response rating, Ryegrass, Italian” value [2, 21] was 0. The “Plant response rating, Corn” value [3, 12] was 0, the “Plant response rating, Corn” value [3, 13] was 0 and the “Plant response rating, Corn” value [3, 14] was 5. For the same compound, the “Plant response rating, Corn” value [3, 15] was 5, the “Plant response rating, Corn” value [3, 20] was 10 and the “Plant response rating, Corn” value [3, 21] was 10. The “Corn plant response rating” value [3, 22] was 10, the “Plant response rating, Corn” value [3, 23] was 10 and the “Plant response rating, Lambsquarters” value [4, 13] was 10. For the same compound, the “Plant response rating, Lambsquarters” value [4, 14] was 40, the “Plant response rating, Lambsquarters” value [4, 15] was 40 and the “Plant response rating, Lambsquarters” value [4, 20] was 40. The “Plant response rating, Lambsquarters” value [4, 21] was 70, the “Plant response rating, Johnsongrass” value [5, 12] was 0 and the “Plant response rating, Johnsongrass” value [5, 13] was 0. The “Plant response rating, Johnsongrass” value [5, 14] was 0, the “Plant response rating, Johnsongrass” value [5, 15] was 0 and the “Plant response rating, Johnsongrass” value [5, 20] was 0. The “Plant response rating, Johnsongrass” value [5, 21] was 10, the “Plant response rating, Barnyardgrass” value [6, 16] was 80 and the “Plant response rating, Barnyardgrass” value [6, 17] was 80. For the same compound, the “Barnyardgrass plant response rating” value ([6]; 125 g ai/ha) was 80, the “Plant response rating, Barnyardgrass” value [6, 18] was 90 and the “Plant response rating, Foxtail, Giant” value [7, 16] was 80. For the same compound, the “Plant response rating, Foxtail, Giant” value [7, 17] was 80, the “Foxtail, Giant plant response rating” value ([7]; 125 g ai/ha) was 80 and the “Plant response rating, Foxtail, Giant” value [7, 19] was 90. For the same compound, the “Plant response rating, Crabgrass, Large” value [8, 12] was 50, the “Plant response rating, Crabgrass, Large” value [8, 13] was 55 and the “Plant response rating, Crabgrass, Large” value [8, 14] was 55. The “Plant response rating, Crabgrass, Large” value [8, 15] was 75, the “Plant response rating, Crabgrass, Large” value [8, 20] was 90 and the “Plant response rating, Crabgrass, Large” value [8, 21] was 90. For the same compound, the “Crabgrass, Large plant response rating” value [8, 22] was 80, the “Plant response rating, Crabgrass, Large” value [8, 23] was 95 and the “Plant response rating, Ducksalad” value [9] was 90. For the same compound, the “Plant response rating, Nutsedge, Yellow” value [10, 12] was 10, the “Plant response rating, Nutsedge, Yellow” value [10, 13] was 10 and the “Plant response rating, Nutsedge, Yellow” value [10, 14] was 10. For the same compound, the “Plant response rating, Nutsedge, Yellow” value [10, 15] was 10, the “Plant response rating, Nutsedge, Yellow” value [10, 20] was 25 and the “Plant response rating, Nutsedge, Yellow” value [10, 21] was 25. For the same compound, the “Plant response rating, Pigweed” value [11, 12] was 25, the “Plant response rating, Pigweed” value [11, 13] was 40 and the “Plant response rating, Pigweed” value [11, 14] was 50. The “Plant response rating, Pigweed” value [11, 15] was 60, the “Plant response rating, Pigweed” value [11, 20] was 20 and the “Plant response rating, Pigweed” value [11, 21] was 55.

`O=C1NCC(c2ccc(F)c(Cl)c2)C1C(=O)Nc1ccccc1F` (stereo not drawn) [Compound 60] was tested, and the “Plant response rating, Soybean” value [1, 12] was 0, the “Plant response rating, Soybean” value [1, 13] was 0 and the “Plant response rating, Soybean” value [1, 14] was 5. For the same compound, the “Plant response rating, Soybean” value [1, 20] was 25, the “Plant response rating, Soybean” value [1, 21] was 25 and the “Plant response rating, Ryegrass, Italian” value [2, 12] was 0. The “Plant response rating, Ryegrass, Italian” value [2, 13] was 0, the “Plant response rating, Ryegrass, Italian” value [2, 14] was 0 and the “Plant response rating, Ryegrass, Italian” value [2, 20] was 0. The “Plant response rating, Ryegrass, Italian” value [2, 21] was 0, the “Plant response rating, Corn” value [3, 12] was 0 and the “Plant response rating, Corn” value [3, 13] was 0. The “Plant response rating, Corn” value [3, 14] was 0, the “Plant response rating, Corn” value [3, 20] was 10 and the “Plant response rating, Corn” value [3, 21] was 20. For the same compound, the “Corn plant response rating” value [3, 22] was 0, the “Plant response rating, Lambsquarters” value [4, 12] was 5 and the “Plant response rating, Lambsquarters” value [4, 13] was 20. The “Plant response rating, Lambsquarters” value [4, 14] was 20, the “Plant response rating, Lambsquarters” value [4, 21] was 10 and the “Plant response rating, Johnsongrass” value [5, 12] was 5. For the same compound, the “Plant response rating, Johnsongrass” value [5, 13] was 5, the “Plant response rating, Johnsongrass” value [5, 14] was 5 and the “Plant response rating, Johnsongrass” value [5, 20] was 20. The “Plant response rating, Johnsongrass” value [5, 21] was 20, the “Plant response rating, Barnyardgrass” value [6, 16] was 80 and the “Plant response rating, Barnyardgrass” value [6, 17] was 90. The “Barnyardgrass plant response rating” value ([6]; 125 g ai/ha) was 80, the “Plant response rating, Barnyardgrass” value [6, 18] was 90 and the “Plant response rating, Foxtail, Giant” value [7, 16] was 80. The “Plant response rating, Foxtail, Giant” value [7, 17] was 80, the “Foxtail, Giant plant response rating” value ([7]; 125 g ai/ha) was 90 and the “Plant response rating, Foxtail, Giant” value [7, 19] was 90. For the same compound, the “Plant response rating, Crabgrass, Large” value [8, 12] was 20, the “Plant response rating, Crabgrass, Large” value [8, 13] was 50 and the “Plant response rating, Crabgrass, Large” value [8, 14] was 75. For the same compound, the “Plant response rating, Crabgrass, Large” value [8, 20] was 95, the “Plant response rating, Crabgrass, Large” value [8, 21] was 95 and the “Crabgrass, Large plant response rating” value [8, 22] was 85. For the same compound, the “Plant response rating, Ducksalad” value [9] was 90, the “Plant response rating, Nutsedge, Yellow” value [10, 12] was 0 and the “Plant response rating, Nutsedge, Yellow” value [10, 13] was 0. For the same compound, the “Plant response rating, Nutsedge, Yellow” value [10, 14] was 5, the “Plant response rating, Nutsedge, Yellow” value [10, 20] was 0 and the “Plant response rating, Nutsedge, Yellow” value [10, 21] was 15. The “Plant response rating, Pigweed” value [11, 13] was 20, the “Plant response rating, Pigweed” value [11, 14] was 20 and the “Plant response rating, Pigweed” value [11, 20] was 10. For the same compound, the “Plant response rating, Pigweed” value [11, 21] was 20.
